Experimental data: patent US7829114B2, “Capsules containing aqueous fill compositions stabilized with derivatized cyclodextrin” (CyDex Pharmaceuticals, Inc., priority 2002, dated 2010)

How the values were obtained:
[1] = H.S.I.T. rating versus SBE concentration (FIG. 3); format: physicochemical
Text: FIG. 3 depicts a chart of the relationship between concentration of SBE cyclodextrin and H.S.I.T. (HALF-SHELL integrity test) rating for HGC (hard gelatin capsule From […]), HGS (hard gelatin capsule from SHIONOGI), HPC (hard hydroxypropyl methylcellulose shell from […]), and HPS (hard hydroxypropyl methylcellulose shell from SHIONOGI), and SSS (soft starch shell […]). The stability obtained was dependent upon the composition of the capsule gel.

[2] = Water activity measurement; format: physicochemical; conditions: about 20-25° C.
Method: Without being held bound to a particular mechanism, it is believed that the increasing the concentration of derivatized cyclodextrin present in the aqueous fill composition results in reduced water activity for the fill composition. The table below provides a summary of water activity versus concentration of cyclodextrin derivatives or some shell-stabilizing materials in water at about 20-25° C., or ambient temperature.
The values detailed above are approximate and can vary from instrument to instrument. These values were determined according to the procedure described herein on a water activity meter described herein. The numbers can also vary within the standard deviation of a particular instrument. It is also possible for the numbers to vary according to the accuracy and reproducibility of the instrument used as well as the method for calibrating the instrument with solution standards of known water activity.
Water activity was measured by placing a sample solution in a small, sealed container and determining the equilibrium humidity and temperature in the container. Instruments such as the HygroLab 3 from Rotronic Instrument Corp. , Huntington, N.Y. were used to measure the water activity. The humidity is determined using a thin film capacitive sensor in the headspace of the container. The temperature is determined using a Pt RTD 100 sensor. From these measurements the activity of water (Aw) is calculated by the instrument. The instrument has an accuracy of about ±0.015 Aw and a repeatability of about ±0.005 Aw. Carefully prepared salt-containing stock solutions of known concentration and water activity were used to calibrate the instrument prior to use.

Substance: sulfobutyl ether cyclodextrin [SAE-CD]
- stability provided to capsules ([1]; SBE concentration of about ≧60% wt., hard gelatin capsules): at least a one-week stability
- stability provided to capsules ([1]; hard hydroxypropyl methylcellulose capsules): at least a two-week stability
- Water Activity (approximate values) ([2]; 10 % w/w in water): ~0.98
- Water Activity (approximate values) ([2]; 20 % w/w in water): ~0.98
- Water Activity (approximate values) ([2]; 30 % w/w in water): ~0.97
- Water Activity (approximate values) ([2]; 40 % w/w in water): ~0.95
- Water Activity (approximate values) ([2]; 50 % w/w in water): ~0.91
- Water Activity (approximate values) ([2]; 55 % w/w in water): ~0.88
- Water Activity (approximate values) ([2]; 60 % w/w in water): ~0.86
- Water Activity (approximate values) ([2]; 70 % w/w in water): ~0.76
